Test results as given in patent US10344017B2, “Pyrrolcarboxamide derivatives for the inhibition of ERK5” (CANCER RESEARCH TECHNOLOGY LIMITED, priority 2014, dated 2019).
pIC50: −log10 of the molar value.

Molecular target: T1, ERK5 (Homo sapiens, UniProt Q13164)
T1 construct: made in house
Test: ERK5 IMAP assay (fluorescence polarisation)
Type: biochemical
Settings: average (e.g. geometric mean) where more than one data point; read-out: ERK5 IC50
Method: The assay buffer was prepared using 0.01% Tween®-20 5× stock, supplied as part of IMAP™ FP Progressive Binding System Kit (Molecular Devices R7436) and diluted to 1× using miliQ H2O. 1 μL of a 1M DTT stock was added for every 1 mL of 1× assay buffer to give a final concentration of 1 mM DTT.
ERK5 was expressed and purified at CRT-DL by Leon Pang and Sue Young. Aliquots were stored at −80° C. The ERK5 working solution was used at a […] final dilution in assay buffer. […] For 1 plate, […] of ERK5 stock was added to 2262 μL of 1× assay buffer.
To prepare the IMAP™ binding solution for one plate 20.5 μL of IMAP™ binding reagent stock, 1476 μL of 1× binding buffer A (60%), and 984 μL of binding buffer B (40%) (IMAP™ FP Progressive screening express kit (Molecular Devices R8127) was added to 9819.5 μL of milliQ H2O.
1 μL of inhibitor (in 60:40 H2O/DMSO) or 60:40 H2O/DMSO (for controls and blanks) were dry-spotted into the relevant wells of a 384-well assay plate using the MATRIX PlateMate® Plus. 5 μL of ERK5 working solution was added to test and control wells, and 5 μL of 1× assay buffer added to blanks; 4 μL of ATP/substrate working solution was added to all wells using a Matrix multichannel pipette. The plate was sealed using DMSO resistant clear seal and incubated for 2 h at 37° C. 1 μL of the kinase reaction mixture from the first plate was dry spotted into a second 384-well assay plate using the MATRIX PlateMate® Plus. 9 μL of assay buffer was added, followed by 30 μL of IMAP™ binding solution using a multichannel pipette. The plate was incubated at RT in darkness for 2 h. The assay plate was then read on an Analyst HT plate reader (Molecular Devices) using the settings described below: […]

T1 sequence (Q13164 whole entry): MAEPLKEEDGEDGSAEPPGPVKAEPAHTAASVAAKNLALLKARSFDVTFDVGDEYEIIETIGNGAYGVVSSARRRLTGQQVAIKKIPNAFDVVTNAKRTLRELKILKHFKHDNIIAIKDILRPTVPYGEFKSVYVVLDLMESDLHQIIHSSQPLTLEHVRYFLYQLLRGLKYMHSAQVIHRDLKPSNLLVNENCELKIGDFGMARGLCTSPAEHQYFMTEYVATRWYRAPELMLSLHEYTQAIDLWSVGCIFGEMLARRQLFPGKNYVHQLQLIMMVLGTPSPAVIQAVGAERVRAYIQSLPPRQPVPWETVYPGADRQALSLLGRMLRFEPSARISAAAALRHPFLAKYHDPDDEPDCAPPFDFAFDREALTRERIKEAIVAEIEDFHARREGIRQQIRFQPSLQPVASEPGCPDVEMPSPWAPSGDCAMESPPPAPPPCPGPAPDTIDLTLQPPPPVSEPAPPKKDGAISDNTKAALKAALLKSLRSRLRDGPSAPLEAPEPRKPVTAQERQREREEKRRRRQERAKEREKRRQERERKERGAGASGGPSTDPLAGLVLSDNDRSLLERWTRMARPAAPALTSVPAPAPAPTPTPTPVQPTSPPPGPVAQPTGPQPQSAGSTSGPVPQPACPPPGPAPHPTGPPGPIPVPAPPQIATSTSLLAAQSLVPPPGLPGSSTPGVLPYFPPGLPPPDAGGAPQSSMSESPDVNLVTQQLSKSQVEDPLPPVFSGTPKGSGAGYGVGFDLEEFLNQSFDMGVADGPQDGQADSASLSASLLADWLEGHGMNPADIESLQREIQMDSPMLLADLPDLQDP

| pIC50 | SMILES |
| --- | --- |
| 6.19 | C=Cc1ccc(F)c(C(=O)c2c[nH]c(C(=O)NC3CCN(C)CC3)c2)c1F [Ex 167] |
| 6.18 | CC(C)N1CCC(NC(=O)c2cc(C(=O)c3c(F)cccc3Cl)c[nH]2)CC1 [Example 1, 4-(2-Chloro-6-fluorobenzoyl)-N-(1-isopropylpiperidin-4-yl)-1H-pyrrole-2-carboxamide] |
| 5.87 | CC(C)(C)OC(=O)N1CCC(NC(=O)c2cc(C(=O)c3c(Cl)ccc(Cl)c3F)c[nH]2)CC1 [Example 2, tert-Butyl 4-(4-(3,6-dichloro-2-fluorobenzoyl)-1H-pyrrole-2-carboxamido)piperidine-1-carboxylate] |
| 6.36 | CCN1CCC(NC(=O)c2cc(C(=O)c3c(F)cccc3Cl)c[nH]2)CC1 [Example 5, 4-(2-Chloro-6-fluorobenzoyl)-N-(1-ethylpiperidin-4-yl)-1H-pyrrole-2-carboxamide] |
| 6.34 | CC(=O)N1CCC(NC(=O)c2cc(C(=O)c3c(F)cccc3Cl)c[nH]2)CC1 [Example 6, N-(1-Acetylpiperidin-4-yl)-4-(2-chloro-6-fluorobenzoyl)-1H-pyrrole-2-carboxamide] |
| 6.53 | CS(=O)(=O)N1CCC(NC(=O)c2cc(C(=O)c3c(F)cccc3Cl)c[nH]2)CC1 [Example 8, 4-(2-Chloro-6-fluorobenzoyl)-N-(1-(methylsulfonyl)piperidin-4-yl)-1H-pyrrole-2-carboxamide] |
| 6.58 | O=C(NC1CCN(c2ncccn2)CC1)c1cc(C(=O)c2c(F)cccc2Cl)c[nH]1 [Example 10, 4-(2-Chloro-6-fluorobenzoyl)-N-(1-(pyrimidin-2-yl)piperidin-4-yl)-1H-pyrrole-2-carboxamide] |
| 6.28 | O=C(NC1CCN(C(=O)C(F)(F)F)CC1)c1cc(C(=O)c2c(Cl)ccc(Cl)c2F)c[nH]1 [Example 11, 4-(3,6-Dichloro-2-fluorobenzoyl)-N-(1-(2,2,2-trifluoroacetyl)piperidin-4-yl)-1H-pyrrole-2-carboxamide] |
| 5.76 | CNc1ncc(NC(=O)c2cc(C(=O)c3c(F)cccc3Cl)c[nH]2)cn1 [Example 12, 4-(2-Chloro-6-fluorobenzoyl)-N-(2-(methylamino)pyrimidin-5-yl)-1H-pyrrole-2-carboxamide] |
| 5.39 | O=C(Nc1cnc(N2CCCC2)nc1)c1cc(C(=O)c2c(F)cccc2Cl)c[nH]1 [Example 14, 4-(2-Chloro-6-fluorobenzoyl)-N-(2-(pyrrolidin-1-yl)pyrimidin-5-yl)-1H-pyrrole-2-carboxamide] |
| 5.76 | O=C(Nc1cnc(N2CCN(C3CC3)CC2)nc1)c1cc(C(=O)c2c(Cl)ccc(Cl)c2F)c[nH]1 [Example 17, N-(2-(4-cyclopropylpiperazin-1-yl)pyrimidin-5-yl)-4-(3,6-dichloro-2-fluorobenzoyl)-1H-pyrrole-2-carboxamide] |
| 5.82 | O=C(Nc1cnc(N2CCOCC2)nc1)c1cc(C(=O)c2c(Cl)ccc(Cl)c2F)c[nH]1 [Example 20, 4-(3,6-Dichloro-2-fluorobenzoyl)-N-(2-morpholinopyrimidin-5-yl)-1H-pyrrole-2-carboxamide] |
| 5.27 | CC(=O)OC1CCN(c2ncc(NC(=O)c3cc(C(=O)c4c(F)cccc4Cl)c[nH]3)cn2)CC1 [Example 21, 1-(5-(4-(2-Chloro-6-fluorobenzoyl)-1H-pyrrole-2-carboxamido)pyrimidin-2-yl)piperidin-4-yl acetate] |
| 5.01 | CC(=O)OC1CCN(c2ncc(NC(=O)c3cc(C(=O)c4c(Cl)ccc(Cl)c4F)c[nH]3)cn2)CC1 [Example 22, 1-(5-(4-(3,6-Dichloro-2-fluorobenzoyl)-1H-pyrrole-2-carboxamido)pyrimidin-2-yl)piperidin-4-yl acetate] |
| 7.03 | CN1CCC(Nc2ncc(NC(=O)c3cc(C(=O)c4c(F)cccc4Cl)c[nH]3)cn2)CC1 [Example 23, 4-(2-Chloro-6-fluorobenzoyl)-N-(2-((1-methylpiperidin-4-yl)amino)pyrimidin-5-yl)-1H-pyrrole-2-carboxamide] |
